Here are results for 89 compounds from a melting point compilation (Tetko et al.; mined from patent text by program, amines drawn as free bases though some values may be those of a salt).

With `c1ccc2sc(-c3nc(COc4ccc(CCCn5ccnc5)cc4)co3)cc2c1`, the melting point (commonly the temperature of the solid-liquid transition) was in the range of 149 to 150 °C. The result for `COc1ccc(-c2nnc3cc(-c4ccccc4)c(OCc4ncn(C)n4)nn23)cc1` reads 205 to 206 °C; that for `COC(=O)c1ccc(C(=O)c2ccccc2)[nH]1`, 111 to 113 °C; that for `COc1cc(C=CC(=O)Nc2cnc3c(C)c(Cl)ccc3c2-c2ccccc2C)cc(OC)c1OC(C)=O`, 213 to 214 °C. The result for `O=C1CN=C(c2ccccc2)c2ccccc2N1CC(F)(F)F` reads 130 to 131 °C; that for `CC(C)(C)OC(=O)C[C@@H](CC1CCCC1)C(=O)N1C(=O)OC[C@@H]1Cc1ccccc1`, 113 to 119 °C. The same measure for `CC(=O)NC1CCN(CCCCl)CC1`: 74 to 77 °C; for `O=C1c2ccccc2C(=O)N1CCn1ccnc1`: 151 to 153 °C; for `COC(=O)C1=C(O)c2c(c3cc(OC)ccc3n2C)S(=O)(=O)N1C`: 200 to 201 °C. As to `N#CCC(=O)N[C@H]1CC[C@H](CCN2CCC(c3cccc4c3CCO4)CC2)CC1`, the melting point was found to be 194 °C. `CCC(Cn1nccn1)n1nnc2cc3c(=O)n(C(C)Cn4ncnn4)nnc3cc2c1=O` (centres undefined) had a melting point of 162 to 163 °C. The same measure for `O=c1[nH]c2cc(C(F)(F)F)ccc2n1CCCN1CCN(C(c2ccccc2)c2ccccc2)CC1`: 153 °C; for `N[C@@H]1C[C@H]2c3ccccc3-c3cccc(c32)NC1=O` (relative stereo): 104 to 107 °C. The same measure for `COc1ccc(CN(C)CC=Cc2ccc(NC(=O)c3cccc4c(=O)c5cccc(OC)c5[nH]c34)cc2)cc1OC`: 200 °C. The result for `N=C1NN(c2ccccc2)CC1CN1CCOCC1` (centres undefined) reads 204 to 205 °C; that for `CCOC(=O)C(=O)Nc1c([N+](=O)[O-])sc2cc(Cl)ccc12`, 139 to 141 °C; that for `N=C(N)Nc1ccc(S(=O)(=O)N2CCOCC2)cc1`, 102 to 105 °C. As for `CC(C)(C)c1nnc(S)o1`, the melting point was in the range of 79 to 80 °C. The result for `Cn1c(-c2ccc(OC3CCN(C4CCCC4)CC3)cc2)nc2ncccc2c1=O` reads 175 to 177 °C; that for `CCOC(=O)COC1=C(C(=O)Nc2cc(Cl)cc(Cl)c2)SC2=NCCCN21`, 165 °C.

`CN1CCC(c2c[nH]c3ccc(OS(=O)(=O)c4ccc(I)cc4)cc23)CC1` gave a melting point of 174 to 176 °C. The same measure for `c1ccc(N2CCOCC2)c(N=C2CCCCN2)c1`: 89 to 90 °C; for `Cc1cc(C2(C(F)(F)F)CN(c3ccc(C(=O)NCC(F)(F)F)cc3)CO2)ccc1F` (centres undefined): 151 to 152 °C; for `COc1ccc(-n2nc(Sc3ccc(Cl)c(Cl)c3)c(C)c(C#N)c2=O)cc1`: 168 to 171 °C. The same measure for `Cc1nc(C)c(C(C)(O)c2cccnc2)s1` (centres undefined): 108 to 109 °C; for `N#CC1=CCN(c2ncccc2F)CC1`: 76 to 77 °C.

Compound `CCCn1c(C)nc2cc(C(=O)O)ccc21` came in with a melting point of more than 260 °C. The same measure for `CC(=O)Oc1ccc(-n2cc(C(=O)OC3CCc4ccccc43)c(=O)cc2-c2cc3ccccc3s2)cc1` (centres undefined): 234 to 236 °C; for `COC1=C(OC)C(=O)C2=C(CC(CCCOc3ccc(C(=O)N(C)C)cc3)C2)C1=O`: 100 to 102 °C; for `C[C@H](NC(=O)OCc1ccccc1)C(=O)N[C@@H](C)C(=O)NC1CCCCC1`: 233 to 234 °C. The same measure for `Cc1ccc(-n2nc(C(=O)NC(C)(C)C)c3c2C2CCC3C2)cc1` (centres undefined): 135 to 137 °C.

In turn, `O=C(O)CCC(=O)c1ccc(-c2ccc(Br)cc2)cc1` registered a melting point of 198 to 200 °C.

Compound `CCCc1nc2ccccc2n1Cc1ccc(C2=C(C(=O)O)CCC2)cc1` returned a melting point of 224 to 226 °C. The same measure for `NS(=O)(=O)c1cc2c(s1)SC(CC(=O)O)C(=O)N2` (centres undefined): 240 °C. In turn, `CC(C)OC(=O)Cn1c(=O)n(C)c(=O)n(-c2cc(N=c3oc(=O)n4n3CCCC4)c(F)cc2Cl)c1=O` yielded a melting point of 115 to 120 °C. The result for `COC1=C(C(=O)c2ccc(C)cc2)C(c2ccc(C(C)C)cc2)N(c2ccc(C)nn2)C1=O` (centres undefined) reads 248 to 249 °C; that for `OC(CN1CCNC1=S)c1cccc(Cl)c1` (centres undefined), 128 °C.

As to `O=C(O)C1CCc2c(c3ccccc3n2C(=O)c2cccc(Cl)c2)C1` (centres undefined), the melting point was 179 to 181 °C.

Turning to `O=C(O)C=CC1CC1(c1cccc(C(F)(F)F)c1)c1cccc(C(F)(F)F)c1` (centres undefined), the melting point was in the range of 147 to 148 °C. The same measure for `CCOC(=O)c1cccc(-c2ccc3ccccc3c2)c1`: 101 to 103 °C. The same measure for `Nc1nc(N)c2c(Sc3ccccc3)cccc2n1`: 195 to 197 °C; for `CCCCCCCCc1ccc(C(=O)CCCCCC(=O)OCC)cc1`: 38 to 40 °C. The same measure for `CCCCCCCC[C@@H](O)C(=O)Nc1cccc2nc(SC)ccc12`: 119 to 120 °C. `CC(Oc1ccc(Oc2cnc3cc(Cl)ccc3n2)cc1)C(=O)Nc1ccc(OC(F)(F)CF)cc1` (centres undefined) registered a melting point of 137 to 140 °C.

Consider `CCc1cc(COc2nn(Cc3ccccc3)cc2CO)ccc1OCc1nc(-c2ccco2)oc1C`, for which the melting point fell in the range of 116 to 117 °C.

In turn, `Cc1nc(N2CCN(Cc3cccc(C(F)(F)F)c3)C2=O)sc1C(=O)NCc1cccnc1` displayed a melting point of 175 to 176 °C. Consider `Cc1ccsc1C(C)N(O)C(N)=O` (centres undefined), for which the melting point stood at 131 °C.

The compound `CC(C)C(=O)c1cccc([N+](=O)[O-])c1` displayed a melting point of 33 to 35 °C. The same measure for `COc1cc(OC)nc(Oc2cccc3c2C(=O)OC3SC#N)n1` (centres undefined): 161 to 163 °C; for `COc1nc(C)c2c(c1C=O)CCCC2O` (centres undefined): 107 °C; for `c1ccc2c(c1)-c1ccccc1C2CN1CCCCC1`: 118 to 119 °C.

`COc1cc2c(cc1O)/C(=N/OCc1ccc([N+](=O)[O-])cc1)CCC2` came in with a melting point of 125 to 127 °C. Compound `CN(C)c1ccc(NC(=S)NCC(C)(C)C)cc1` returned a melting point of 174 to 176 °C. The same measure for `CCOC(=O)c1c(O)cc(C(F)(F)F)nc1C(F)(F)F`: 70 to 77 °C; for `Cc1cc(I)ccc1NC1=CC2=NCN(C)C2=CC1(F)C(=O)NN` (centres undefined): 232 to 234 °C; for `COc1cc(N)c(Cl)cc1C(=O)NCC1CCN(CCCCC(=O)c2ccccc2)CC1`: 100 to 102 °C. The same measure for `Brc1ccc(Br)c2nc(-c3ccccc3)c(-c3ccccc3)nc12`: 221 to 223 °C; for `COc1ccc(C2=NN(c3ccc(S(N)(=O)=O)cc3)C(=O)[C@H]3CC=CC[C@@H]23)cc1OC` (relative stereo): 181 to 183 °C; for `C=CCNC(=O)NC(CCC)(CCC)CCC`: 66 °C. The same measure for `O=c1[nH]c2cccnc2n1-c1ccccn1`: 235 to 238 °C; for `OCc1cccc2c1SC(c1ccccc1)=CC2`: 120 to 122 °C.

`O=C1NC(=O)C2(CCOC2)N1` (centres undefined) gave a melting point of 202 to 204 °C.

`CS(=O)(=O)NC(CCCCCc1ccc(Cl)cc1)C(=O)O` (centres undefined) gave a melting point of 73 to 75 °C. The same measure for `COC(=O)C1=C(C)NC(C)=C(C(=O)OC)C1c1ccccc1Cl`: 188 to 189 °C. The same measure for `N#Cc1cc(C(F)(F)F)nn1-c1ccc(NC(=O)c2ccncc2Cl)cc1`: 221 to 222 °C; for `COC(=O)c1cc2cc(OCc3ccccc3)ccc2n1CC(=O)N(C)CCc1ccccc1`: 155 to 156 °C. As to `CCCCCc1c(C(O)CC)nc(C(C)C)c(CO)c1-c1ccc(F)cc1` (centres undefined), the melting point was in the range of 89 to 90 °C. The same measure for `CCOC(=O)CNC(=O)OCc1ccc(OC(C)=O)c(OC)c1`: 62 to 64 °C; for `Cn1c2c(c3ccc(-n4ccc(OCc5ccccc5)cc4=O)cc31)CNCCC2`: 178 to 181 °C; for `C=CCN1CCN(c2cc(-c3ccccc3)c3ccc(=O)ccn23)CC1`: 125 °C.

`CCOC(=O)c1c(-c2ccccc2)c2c3ccccc3ccn2c1C(C)C` had a melting point of 82 to 84 °C. The compound `O=C(CCCI)c1ccc(F)cc1O` gave a melting point of 41.4 °C.

The compound `CCOC(=O)c1cnc(N)s1` displayed a melting point of 155 to 158 °C. As for `CC(C)n1nc(-c2c(NCc3ccco3)nc(N)nc2-c2ccccc2)ccc1=O`, the melting point was in the range of 213 to 214 °C. Compound `CCCCCc1ccc(-c2ccc(-c3c(C(=O)OC)c4c(c5ccccc35)OC(c3ccccc3)(c3ccc(N(CC)CC)cc3)C=C4)cc2)cc1` (centres undefined) returned a melting point of 177 to 178 °C.

The compound `CS(=O)(=O)c1ccc(-c2cc([N+](=O)[O-])sc2-c2ccc(F)cc2)cc1` came in with a melting point of 155 to 156 °C.

Compound `CNc1c(F)cc2c(=O)c(C(=O)O)cn(-c3cc(N)c(F)cc3F)c2c1C` yielded a melting point of 225 to 228 °C. The same measure for `COC(=O)c1cc(-c2ccc(OC)c(F)c2)nn(CC2CC2)c1=O`: 114 to 117 °C. `COc1cc(C)c(Cl)c2c(=O)oc3c(c12)C(=O)c1cccc(O)c1C3=O` yielded a melting point of 294 to 296 °C. On to `CN1C(=O)CC[C@]2(C)c3ccc(C#Cc4ccccc4)cc3CC[C@@H]12`, for which the melting point is 205 to 208 °C. The same measure for `CCOC(=O)/C=C/c1ccc(OCCOC)c(C)c1OCc1ccc(Cl)cc1Cl`: 92 to 92.5 °C. The result for `CC1(C)CC(=O)C2=C(C1)NC(c1cccnc1)=NC2c1ccc(F)cc1Cl` (centres undefined) reads 186 to 187 °C.

For `COC(=O)n1cc2c(c1)-c1ccc(Cl)cc1C(c1ccccc1Cl)=[N+]([O-])C2`, the melting point is 224 to 226 °C. The same measure for `NC(=O)N(O)Cc1ccc(OCCc2noc(-c3ccccc3)n2)cc1`: 135 to 136 °C.

`CNS(=O)(=O)c1ccc(C)c(CCCOCCn2cnc3c(N)nc4ccccc4c32)c1` registered a melting point of 207 to 209 °C. The result for `Cc1cc(NC(=O)C2=C(O)CN(C)S(=O)(=O)N2C)no1` reads 189 to 192 °C. The same measure for `CC(=Cc1c[nH]c2ccc3c(c12)CC(O)CO3)[N+](=O)[O-]` (centres undefined): 240 to 242 °C; for `COc1ccc(C(=O)c2ccc(=O)[nH]c2C=CN(C)C)cc1`: 216 to 218 °C; for `COc1ccc(C=CC(=O)c2c(OC)cc(OC)cc2OC(C)=O)cc1`: 105 to 107 °C.
